A word on the MIC: it is the lowest concentration that inhibits growth of the organism.

Type in all cases: cell-based
Assay [1] deals with Pseudomonas aeruginosa ATCC 8689. Put plainly: MIC against bacteria (Table I), strain (4). To be noted: ATCC8689; (4) Pseudomonas aeruginosa ATCC 8689; read-out: MIC. The text has this:
(§1) Now, for illustrating the excellent pharmacological effects of the compounds of this invention, the values of MIC (γ/ml.) of the compounds against various bacteria are shown in Table 1, in which the compounds of this invention used are shown by example numbers.
(4) Pseudomonas aeruginosa ATCC 8689

Assay [2] has as its system Bacillus subtilis ATCC 6633. Kind of assay: MIC against bacteria (Table I), strain (14). To be noted: ATCC6633; (14) Bacillus subtilis ATCC 6633; read-out: MIC.
Source text: as §1
(14) Bacillus subtilis ATCC 6633

The subject of assay [3] is Psuedomonas ovalis IMA 1002. Kind of assay: MIC against bacteria (Table I), strain (6).
Source text: as §1
(6) Psuedomonas ovalis IMA 1002

The test system of assay [4] is Escherichia coli kauffmann 0-1. Put plainly: MIC against bacteria (Table I), strain (7).
Source text: as §1
(7) Escherichia coli kauffmann 0-1

A further assay has as its system Salmonella enteritidis. Kind of assay: MIC against bacteria (Table I), strain (10). To be noted: Salmonella enterica; (10) Salmonella enteritidis; read-out: MIC.
Source text: as §1
(10) Salmonella enteritidis

Assay [5] deals with Pseudomonas aeruginosa 99 (Gentamycin resistant). Kind of assay: MIC against bacteria (Table I), strain (5).
Source text: as §1
(5) Pseudomonas aeruginosa 99 (Gentamycin resistant)

The test system of assay [6] is Staphylococcus aureus 209P. Kind of assay: MIC against bacteria (Table I), strain (16).
Source text: as §1
(16) Staphylococcus aureus 209P

Assay [7] deals with Klebsiella pneumoniae ATCC 10031. Put plainly: MIC against bacteria (Table I), strain (8). To be noted: ATCC10031.
Source text: as §1
(8) Klebsiella pneumoniae ATCC 10031

Assay [8] has as its system Bacillus megatherium 10778. Put plainly: MIC against bacteria (Table I), strain (13). The following applies: (13) Bacillus megatherium 10778; read-out: MIC.
Source text: as §1

The test system of a further assay is Proteus vulgaris OXK US. Put plainly: MIC against bacteria (Table I), strain (1). To be noted: (1) Proteus vulgaris OXK US; read-out: MIC.
Source text: as §1
(1) Proteus vulgaris OXK US

A further assay deals with Staphylococcus Onuma. Kind of assay: MIC against bacteria (Table I), strain (18).
Source text: as §1
(18) Staphylococcus Onuma

Assay [9] relates to Proteus mirabilis IXM OM-19. Kind of assay: MIC against bacteria (Table I), strain (3). The following applies: IXMOM19; (3) Proteus mirabilis IXM OM-19; read-out: MIC.
Source text: as §1
(3) Proteus mirabilis IXM OM-19

For assay [10], the system named is Staphylococcus Shimanishi. Put plainly: MIC against bacteria (Table I), strain (17).
Source text: as §1
(17) Staphylococcus Shimanishi

The subject of a further assay is Proteus vulgaris 0X 19US. Put plainly: MIC against bacteria (Table I), strain (2). To be noted: 0X19US; (2) Proteus vulgaris 0X 19US; read-out: MIC.
Source text: as §1
(2) Proteus vulgaris 0X 19US

The subject of assay [11] is Shigella flexneri 2a 1675. Kind of assay: MIC against bacteria (Table I), strain (11). The following applies: 2A1675; (11) Shigella flexneri 2a 1675; read-out: MIC.
Source text: as §1

Another assay deals with Shigella sonnei II 37148. Put plainly: MIC against bacteria (Table I), strain (12). To be noted: II37148; (12) Shigella sonnei II 37148; read-out: MIC.
Source text: as §1

The subject of the next assay is Salmonella typhi H901 W. Kind of assay: MIC against bacteria (Table I), strain (9). The following applies: Salmonella enterica, TYPHI.
Source text: as §1
(9) Salmonella typhi H901 W

Assay [12] relates to Micrococcus flavus ATCC 10240. Kind of assay: MIC against bacteria (Table I), strain (15). To be noted: ATCC10240; (15) Micrococcus flavus ATCC 10240; read-out: MIC.
Source text: as §1
(15) Micrococcus flavus ATCC 10240

Where [13] appears, read: (6) Psuedomonas ovalis IMA 1002, read-out: MIC.
Setting [14] is: (16) Staphylococcus aureus 209P, read-out: MIC.
The mark [15] stands for this setting: (17) Staphylococcus Shimanishi, read-out: MIC.

Values after ≈ are worked out from the molar mass of the structure shown. Like-named read-outs stand apart in the source and are kept apart here.

For `CC(=O)OCC1=C(C(=O)O)N2C(=O)[C@@H](NC(=O)[C@H](N)c3ccccc3)[C@H]2SC1` [Cephaloglycin, reference compound], the minimum inhibitory concentration (MIC) in [1] is more than 100 µg/mL; in [2], 0.3 µg/mL (≈ 0.74 µM); in assay [3] (setting [13]), more than 100 µg/mL; in assay [4] (Escherichia coli), 100 µg/mL (≈ 247 µM); in the assay on Salmonella enteritidis, 3 µg/mL (≈ 7.4 µM); in assay [5] (Pseudomonas aeruginosa), more than 100 µg/mL. Besides, the MIC in [6] (setting [14]) turned out to be 1 µg/mL (≈ 2.47 µM); in [7] ((8) Klebsiella pneumoniae ATCC 10031, read-out: MIC), 25 µg/mL (≈ 61.7 µM); in [8], 1 µg/mL (≈ 2.47 µM); in the assay on Proteus vulgaris OXK US it was 25 µg/mL (≈ 61.7 µM); in the assay with Staphylococcus Onuma ((18) Staphylococcus Onuma, read-out: MIC) it was 3 µg/mL (≈ 7.4 µM); in assay [9], 100 µg/mL (≈ 247 µM). The MIC in assay [10] (setting [15]) was 3 µg/mL (≈ 7.4 µM); in the assay on Proteus vulgaris 0X 19US it was 100 µg/mL (≈ 247 µM); in assay [11], 3 µg/mL (≈ 7.4 µM); with Shigella sonnei II 37148, 10 µg/mL (≈ 24.7 µM); in the assay with Salmonella typhi H901 W it was 3 µg/mL (≈ 7.4 µM); in assay [12], 0.3 µg/mL (≈ 0.74 µM).
On to `O=C(O)CCC(=O)Nc1nnc(SCC2=C(C(=O)O)N3C(=O)[C@@H](NC(=O)[C@H](NC(=O)c4csccc4=O)c4ccccc4)[C@H]3SC2)s1` [Example 1, 7-[D-α-(4-oxo-4H-thiopyran-3-ylcarboxamido)-α-phenylacetamido]-3-[5-(3-carboxypropionylamino)-1,3,4-thiadiazol-2-yl]thiomethyl-Δ^3-cephem-4-carboxylic acid], for which the MIC is 25 µg/mL (≈ 34.9 µM) in assay [1]; 0.39 µg/mL (≈ 0.544 µM) in assay [2]; 25 µg/mL (≈ 34.9 µM) in assay [3] (setting [13]); 25 µg/mL (≈ 34.9 µM) in assay [4] ((7) Escherichia coli kauffmann 0-1, read-out: MIC); 0.78 µg/mL (≈ 1.09 µM) in the assay on Salmonella enteritidis; 50 µg/mL (≈ 69.8 µM) in assay [5] ((5) Pseudomonas aeruginosa 99 (Gentamycin resistant), read-out: MIC). The MIC amounted to 0.78 µg/mL (≈ 1.09 µM) in [6] (setting [14]); 6.25 µg/mL (≈ 8.72 µM) in [7] (Klebsiella pneumoniae); 0.78 µg/mL (≈ 1.09 µM) in assay [8]; 0.19 µg/mL (≈ 0.265 µM) in the assay on Proteus vulgaris OXK US; 6.25 µg/mL (≈ 8.72 µM) in the assay with Staphylococcus Onuma (Staphylococcus); 0.78 µg/mL (≈ 1.09 µM) in [9]. The MIC worked out at 3.13 µg/mL (≈ 4.37 µM) in [10] (setting [15]); 0.19 µg/mL (≈ 0.265 µM) in the assay with Proteus vulgaris 0X 19US; 6.25 µg/mL (≈ 8.72 µM) in assay [11]; 25 µg/mL (≈ 34.9 µM) with Shigella sonnei II 37148; 1.56 µg/mL (≈ 2.18 µM) in the assay on Salmonella typhi H901 W; 3.13 µg/mL (≈ 4.37 µM) in assay [12].
`O=C(O)CCSc1nnc(SCC2=C(C(=O)O)N3C(=O)[C@@H](NC(=O)[C@H](NC(=O)c4cnccc4O)c4ccccc4)[C@H]3SC2)s1` [Example 5, 7-[D-α-(4-hydroxynicotinoylamido)-α-phenylacetamido]-3-(5-carboxyethylthio-1,3,4-thiadiazol-2-yl)-thiomethyl-Δ^3-cephem-4-carboxylic acid]: the MIC came to 12.5 µg/mL (≈ 18.1 µM) in assay [1]; 0.39 µg/mL (≈ 0.566 µM) in [2]; 6.25 µg/mL (≈ 9.07 µM) in [3]; 6.25 µg/mL (≈ 9.07 µM) in [4] (Escherichia coli); 0.39 µg/mL (≈ 0.566 µM) in the assay with Salmonella enteritidis; 6.25 µg/mL (≈ 9.07 µM) in assay [5] (Pseudomonas aeruginosa). Further, the MIC was 1.56 µg/mL (≈ 2.26 µM) in assay [6] (Staphylococcus aureus, 209P); 6.25 µg/mL (≈ 9.07 µM) in assay [7] (Klebsiella pneumoniae); 0.78 µg/mL (≈ 1.13 µM) in assay [8]; less than 0.09 µg/mL in the assay on Proteus vulgaris OXK US; 6.25 µg/mL (≈ 9.07 µM) in the assay with Staphylococcus Onuma (Staphylococcus); 0.78 µg/mL (≈ 1.13 µM) in assay [9]. Moreover, the minimum inhibitory concentration (MIC) in assay [10] (Staphylococcus) was determined as 6.25 µg/mL (≈ 9.07 µM); with Proteus vulgaris 0X 19US it was 0.19 µg/mL (≈ 0.276 µM); in [11], 1.56 µg/mL (≈ 2.26 µM); in the assay with Shigella sonnei II 37148 it was 6.25 µg/mL (≈ 9.07 µM); against Salmonella typhi H901 W, 1.56 µg/mL (≈ 2.26 µM); in [12] it was 3.13 µg/mL (≈ 4.54 µM).

Source of the values: patent US4068074A, “Cephalosporin derivatives having at the 3-position of the cephem ring a heterocyclic thiomethyl group with a carboxy or sulfo group and at the 7-position of the cephem ring an α-heterocylic acylaminophenyl-acetamide group” (priority 1974, dated 1978).
